Test results published in patent US6890954B1, “Uses of 2-bromopalmitate in the treatment of autoimmune disease” (priority 1999, dated 2005).

How the values were obtained:
[1] = molecular target: T1, Fyn (Homo sapiens, UniProt P06241); assay: Fyn fatty acylation (IC13/IC16 incorporation) in transfected COS-1 cells; type: cell-based; settings: COS-1 cells, 100 μM 2-bromopalmitate, normalized for total protein levels
T1 construct: expressed in transfected cells; host or cells: COS-1
Method: The syntheses of 13-[^125I]-iodotridecanoic acid (IC13)or 16-[^125I]-iodohexanoic acid (IC16) were carried out as described previously (39). Cell labeling was carried out as described (12,13) with modifications. Briefly, each 60 mm plate of Fyn transfected COS-1 cells was incubated O/N in DMEM containing 2.5% FBS, 0.5% defatted BSA (Sigma) with or without 100 μM 2-bromopalmitate or 50 μM polyunsaturated fatty acid. Prior to labeling, the cells were incubated for 1 hr with 1 ml of DMEM containing 2% dialyzed FBS, then labeled for 4 hours with 25-50 μCi IC13 or IC16 in DMEM containing 2% dialyzed FBS, 0.5% defatted BSA with or without 2-bromopalmitate or polyunsaturated fatty acid. Labeled cells were washed three times with cold STE (100 mM NaCl, 10 mM Tris pH 7.4, 1 mM EDTA) and lysed in 0.6 ml of cold RIPA buffer containing protease inhibitors (10 μg/ml each of benzamidine, AEBSF, TPCK and TLCK, 1.5 μg/ml each of Leupeptin, Pepstatin A and Aprotinin). Lysates were clarified at 100,000×g for 15 min at 4° C. in a Beckman TL-100 ultracentrifuge. Lysates were immunoprecipitated with rabbit anti-Fyn antibody and protein A-agarose. Immunoprecipitates were washed three times with cold RIPA buffer and suspended in 1× sample buffer containing 100 mM dithiothreitol and subjected to SDS-PAGE. Gels were dried between cellophane and analyzed by phosphorimaging after 12-36 hours exposure. Experiments in Jurkat T cells were carried out according to the above protocol using 2×10^7 cells per experiment, and reducing the incubation time with 2-bromopalmitate to 3-4 hours.
A number of palmitic acid analogs were screened for their ability to inhibit Fyn palmitoylation. COS-1 cells were transfected with cDNA encoding Fyn. Three days after transfection, the cells were labeled with either [^35S]-methionine, 13-[^125I]-iodotridecanoic acid (IC13), an iodinated myristate analog, or 16-[^125I]-iodohexanoic acid (IC16), an iodinated palmitic acid analog (39), in the presence or absence of nonradioactive palmitate analogs. Cells were lysed, immunoprecipitated with anti-Fyn antibody, and analyzed by SDS-PAGE and phosphorimaging. […] When normalized for total protein levels, 70% of Fyn myristoylation and over 90% of Fyn palmitoylation was inhibited in the presence of 2-bromopalmitate. Treatment of cells with other analogs, including 2-hydroxypalmitate, palmitoleic acid and 16-hydroxypalmitate had no effect (data not shown).
To test this hypothesis, Fyn transfected COS-1 cells were incubated O/N with or without 50 μM arachidonic acid (20:4) or eicosapentaenoic acid (20:5), then labeled with IC13 or IC16. Total protein levels were monitored by immunoblotting aliquots of each sample with anti-Fyn antibody (FIG. 8A, lower panel).

[2] = system: Fyn(16)-eGFP; assay: Localization of Fyn(16)-eGFP in COS-1 cells (fluorescence microscopy, P100/S100 fractionation); type: cell-based
Method: COS-1 cells were transfected with a Fyn(16)-eGFP construct (12) and seeded onto 25-mm glass coverslips 2 days prior to the experiment. Cells were treated overnight with or without 2 bromopalmitate as described above. Plates were washed with PBS and coverslips were mounted onto glass slides in PBS and observed with a 40× and 100×oil immersion lens on a Zeiss Axiophot 2 microscope and photographed with Kodak TMAX 400.
To investigate the effect of 2-bromopalmitate on the intracellular localization of Fyn more precisely, COS-1 cells expressing a Fyn(16)-eGFP construct were examined by immunofluorescence. This construct contains the first 16 amino acids of Fyn fused in frame to eGFP; the chimera is targeted to the plasma membrane and detergent resistant microdomains (12). Cells were cultured with no treatment, with 2-bromopalmitate or with 2-hydroxymyristate, a known myristoylation inhibitor (40,41), as described above, and were examined live by fluorescence microscopy.
Analysis of the subcellular localization of Fyn(16)-eGFP in the presence of 2-bromopalmitate and 2-hydroxymyristate was performed as described above for steady-state Fyn. As depicted in FIG. 2B, in the absence of treatment, 80% of Fyn(16)-eGFP Fyn was membrane bound, whereas in cells treated with 2-bromopalmitate and 2-hydroxymyristate, 65% and 78% of Fyn(16)-eGFP were cytosolic, respectively.

T1 sequence (P06241 whole entry, species assumed): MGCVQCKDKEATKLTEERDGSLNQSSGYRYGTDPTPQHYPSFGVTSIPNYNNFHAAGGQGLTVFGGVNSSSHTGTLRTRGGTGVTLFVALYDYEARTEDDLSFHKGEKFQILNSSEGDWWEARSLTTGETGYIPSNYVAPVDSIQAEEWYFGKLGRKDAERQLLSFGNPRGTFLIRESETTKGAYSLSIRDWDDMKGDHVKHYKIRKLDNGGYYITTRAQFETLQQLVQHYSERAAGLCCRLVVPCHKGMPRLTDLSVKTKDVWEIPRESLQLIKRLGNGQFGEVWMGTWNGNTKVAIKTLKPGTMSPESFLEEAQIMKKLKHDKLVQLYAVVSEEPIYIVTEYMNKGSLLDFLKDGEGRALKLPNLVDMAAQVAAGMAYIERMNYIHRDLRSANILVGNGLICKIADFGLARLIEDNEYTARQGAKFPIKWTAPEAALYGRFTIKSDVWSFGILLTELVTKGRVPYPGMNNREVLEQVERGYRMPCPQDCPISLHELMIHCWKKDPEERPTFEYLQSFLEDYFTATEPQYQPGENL

CCCCCCCCCCCCCCC(Br)C(=O)O (stereo not shown) [2-bromopalmitate]
Fyn myristoylation inhibited ([1]; IC13 label): 70%
Fyn palmitoylation inhibited ([1]; IC16 label): over 90%
Fyn(16)-eGFP cytosolic ([2]; COS-1, 100 μM overnight, P100/S100, untreated 80% membrane bound): 65%
Fyn(16)-eGFP distribution by fluorescence microscopy ([2]; COS-1 live cells, 100 μM overnight): reduced plasma membrane staining
